Consider 14 compounds from US20250179103A1, “6-OXODECAHYDROPYRROLO[1,2-A][1,5]DIAZOCINE AND 6-OXODECAHYDRO-4H-PYRROLO[2,1-D][1,5]THIAZOCINE DERIVATIVES AS STAT3 AND STAT6 MODULATORS FOR THE TREATMENT OF CANCER AND INFLAMMATORY CONDITIONS” (Recludix Pharma, Inc., priority 2022, published 2025).

The target of experiment [1] is T1, Recombinant STAT6 protein (STAT6(W123-T658)) (Homo sapiens, UniProt P42226).
T1 construct: Recombinant STAT6 protein (STAT6(W123-T658))
T1 sequence (P42226 123-658): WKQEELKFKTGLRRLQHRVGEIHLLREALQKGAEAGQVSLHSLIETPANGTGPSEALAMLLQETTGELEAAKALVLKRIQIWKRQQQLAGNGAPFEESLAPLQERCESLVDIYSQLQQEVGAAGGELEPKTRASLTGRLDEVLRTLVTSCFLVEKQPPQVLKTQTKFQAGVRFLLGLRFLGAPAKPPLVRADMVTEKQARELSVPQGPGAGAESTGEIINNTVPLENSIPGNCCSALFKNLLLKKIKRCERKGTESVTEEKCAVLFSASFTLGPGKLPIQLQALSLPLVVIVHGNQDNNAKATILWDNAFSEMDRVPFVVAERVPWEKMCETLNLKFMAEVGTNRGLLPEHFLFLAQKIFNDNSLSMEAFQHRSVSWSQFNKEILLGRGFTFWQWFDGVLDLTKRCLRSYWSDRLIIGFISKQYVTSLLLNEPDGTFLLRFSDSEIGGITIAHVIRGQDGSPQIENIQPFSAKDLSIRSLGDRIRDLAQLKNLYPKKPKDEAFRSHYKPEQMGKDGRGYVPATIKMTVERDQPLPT
Kind of experiment: STAT6 Fluorescence Polarization (FP) Assay. Format: binding. The note with it: STAT6(W123-T658) 250 nM, probe 5-FAM-ApYKPFQDLI-NH2 2 nM, 45-minute incubation. The procedure:
STAT6 Fluorescence Polarization (FP) Assay
An FP assay was developed to determine IC50 values for test substances. Recombinant STAT6 protein (STAT6(W123-T658)) at 250 nM was combined with a fluorescently labeled, phosphotyrosine peptide probe (5-FAM-ApYKPFQDLI-NH2) at 2 nM in FP buffer (10 mM HEPES pH 7.4, 50 mM NaCl, 1 mM EDTA, 0.05% Tween 20.2 mM DTT). 50 μL of STAT6-probe mixture was added to serial diluted compounds in black, 96-well plates (Greiner BioOne 655076) to a final concentration of 1% DMSO. Reaction components were mixed, and FP was measured after 45-minute incubation at room temperature using a Tecan Spark multimode plate reader. FP signal (mP) was plotted against the log concentration of the test substances and IC50 values were calculated by nonlinear regression analysis using GraphPad Prism software. For STAT6 FP assay, A=≤300 nM; B=>300-3000 nM; C=>3-30 μM; and D=>30 μM.
On the technique in general: Polarisation of emitted light reports the rotation of a fluorescent probe.

Experiment [2] deals with T2, Recombinant STAT3 protein (STAT3(G127-I722)) (Homo sapiens, UniProt P40763).
T2 construct: Recombinant STAT3 protein (STAT3(G127-I722))
T2 sequence (P40763 127-722): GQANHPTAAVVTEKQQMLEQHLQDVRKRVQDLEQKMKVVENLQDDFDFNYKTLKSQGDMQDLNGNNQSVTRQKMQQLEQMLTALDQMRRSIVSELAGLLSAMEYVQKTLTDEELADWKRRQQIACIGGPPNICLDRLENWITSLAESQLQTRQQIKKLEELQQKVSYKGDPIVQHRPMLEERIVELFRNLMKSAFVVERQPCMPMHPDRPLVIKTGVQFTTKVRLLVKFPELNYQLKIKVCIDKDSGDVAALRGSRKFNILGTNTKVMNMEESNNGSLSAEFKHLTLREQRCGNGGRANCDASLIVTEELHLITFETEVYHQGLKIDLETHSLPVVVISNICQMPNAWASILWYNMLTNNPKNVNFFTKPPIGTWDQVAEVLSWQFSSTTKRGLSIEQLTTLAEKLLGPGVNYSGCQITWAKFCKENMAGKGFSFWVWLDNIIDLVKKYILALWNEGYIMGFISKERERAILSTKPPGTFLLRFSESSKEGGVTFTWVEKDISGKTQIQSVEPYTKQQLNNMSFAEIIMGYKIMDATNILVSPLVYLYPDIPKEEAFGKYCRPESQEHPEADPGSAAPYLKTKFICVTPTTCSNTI
Kind of experiment: STAT3 Fluorescence Polarization (FP) Assay. It is filed as binding. The note with it: STAT3(G127-I722) 25 nM, probe 5-FAM-GpYLPQTV-NH2 2 nM, 45-minute incubation. The procedure: STAT3 Fluorescence Polarization (FP) Assay
An FP assay was developed to determine IC50 values for test substances. Recombinant STAT3 protein (STAT3(G127-I722)) at 25 nM was combined with a fluorescently labeled, phosphotyrosine peptide probe (5-FAM-GpYLPQTV-NH2) at 2 nM in FP buffer (10 mM HEPES pH 7.4, 50 mM NaCl, 1 mM EDTA, 0.05% Tween 20.2 mM DTT). 50 μL of STAT3-probe mixture was added to serial diluted compounds in black, 96-well plates (Greiner BioOne 655076) to a final concentration of 1% DMSO. Reaction components were mixed, and FP was measured after 45-minute incubation at room temperature using a Tecan Spark multimode plate reader. FP signal (mP) was plotted against the log concentration of the test substances and IC50 values were calculated by nonlinear regression analysis using GraphPad Prism software. For STAT3 FP assay, A=≤100 nM; B=>100-1000 nM; C=>1-10 μM; and D=>10 μM.

Where only a bound is given, the exact number is not on record here.

The term IC50 denotes the concentration that inhibits the measured activity by half. As for `CC(=O)N1CC[C@H]2CC[C@@H](C(=O)Nc3ccc4nccn4c3)N2C(=O)[C@@H](NC(=O)c2cc3cc(C(F)(F)P(=O)(O)O)ccc3s2)C1` [Compound 72, ((2-(((5S,8S,10aR)-3-acetyl-8-(imidazo[1,2-a]pyridin-6-ylcarbamoyl)-6-oxodecahydropyrrolo[1,2-a][1,5]diazocin-5-yl)carbamoyl)benzo[b]thiophen-5-yl)difluoromethyl)phosphonic acid], the figures for the IC50 in experiment [1] and in experiment [2] were 300 to 3000 nM and 1000 to 10000 nM, respectively.
For `CC(=O)N1CC[C@H]2CC[C@@H](C(=O)N3CCC[C@H]3Cc3ccccc3)N2C(=O)[C@@H](NC(=O)c2cc3cc(C(F)(F)P(=O)(O)O)ccc3s2)C1` [Compound 186, ((2-(((5S,8S,10aR)-3-acetyl-8-((S)-2-benzylpyrrolidine-1-carbonyl)-6-oxodecahydropyrrolo[1,2-a][1,5]diazocin-5-yl)carbamoyl)benzo[b]thiophen-5-yl)difluoromethyl)phosphonic acid], in that order: at most 300 nM and 1000 to 10000 nM.
On to `CC(=O)N1CC[C@H]2CC[C@@H](C(=O)Nc3ccccc3)N2C(=O)[C@@H](NC(=O)c2cc3cc(C(F)(F)P(=O)(O)O)ccc3s2)C1` [Compound 181, ((2-(((5S,8S,10aR)-3-acetyl-6-oxo-8-(phenylcarbamoyl)decahydropyrrolo[1,2-a][1,5]diazocin-5-yl)carbamoyl)benzo[b]thiophen-5-yl)difluoromethyl)phosphonic acid], for which the IC50 in experiment [1] is 300 to 3000 nM; in experiment [2] it was 1000 to 10000 nM.
For `CC(=O)N1CC[C@H]2CC[C@@H](C(=O)Nc3ccc4ccccc4c3)N2C(=O)[C@@H](NC(=O)c2cc3cc(C(F)(F)P(=O)(O)O)ccc3s2)C1` [Compound 173, ((2-(((5S,8S,10aR)-3-acetyl-8-(naphthalen-2-ylcarbamoyl)-6-oxodecahydropyrrolo[1,2-a][1,5]diazocin-5-yl)carbamoyl)benzo[b]thiophen-5-yl)difluoromethyl)phosphonic acid], in that order: 300 to 3000 nM and 100 to 1000 nM.
Take “((2-(((5S,8S,10aR)-3-acetyl-8-((rel-trans)-3-cyano-3-methyl-4-phenylpyrrolidine-1-carbonyl)-6-oxodecahydropyrrolo[1,2-a][1,5]diazocin-5-yl)carbamoyl)benzo[b]thiophen-5-yl)difluoromethyl)phosphonic acid [Compound 41]”: the IC50 in experiment [1] is at most 300 nM; in experiment [2] it was 1000 to 10000 nM.
Consider `O=C(N[C@H]1CN(C(=O)c2noc3c2CCCC3)CC[C@H]2CC[C@@H](C(=O)N3CCOCC3)N2C1=O)c1ccc2ccc(C(F)P(=O)(O)O)cc2c1` (stereo partly drawn) [Compound 358, (fluoro(7-(((5S,8S,10aR)-8-(morpholine-4-carbonyl)-6-oxo-3-(4,5,6,7-tetra-hydrobenzo[d]isoxazole-3-carbonyl)decahydropyrrolo [1,2-a][1,5]diazocin-5-yl)carbamoyl)naphthalen-2-yl)methyl)phosphonic acid], for which the IC50 is 300 to 3000 nM in experiment [1] and above 10000 nM in experiment [2].
For `CC(=O)N1CC[C@H]2CC[C@@H](C(=O)Nc3ccn(-c4ccccc4)c(=O)c3C#N)N2C(=O)[C@@H](NC(=O)c2cc3cc(C(F)(F)P(=O)(O)O)ccc3[nH]2)C1` [Compound 105, ((2-(((5S,8S,10aR)-3-acetyl-8-((3-cyano-2-oxo-1-phenyl-1,2-dihydropyridin-4-yl)carbamoyl)-6-oxodecahydropyrrolo[1,2-a][1,5]diazocin-5-yl)carbamoyl)-1H-indol-5-yl)difluoromethyl)phosphonic acid], in that order: 300 to 3000 nM and 100 to 1000 nM.
On the same counts, the results for `CC(=O)N1CC[C@H]2CC[C@@H](C(=O)N3CCC(c4cnc5n4CCCC5)C3)N2C(=O)[C@@H](NC(=O)c2cc3cc(C(F)(F)P(=O)(O)O)ccc3s2)C1` (stereo partly drawn) [Compound 81, ((2-(((5S,8S,10aR)-3-acetyl-6-oxo-8-(3-(5,6,7,8-tetrahydroimidazo[1,2-a]pyridin-3-yl)pyrrolidine-1-carbonyl)decahydropyrrolo[1,2-a][1,5]diazocin-5-yl)carbamoyl)benzo[b]thiophen-5-yl)difluoromethyl)phosphonic acid] are 300 to 3000 nM and 100 to 1000 nM.
As for `CNC(=O)C[C@@H](Cc1ccc(OC)cc1)NC(=O)[C@@H]1CC[C@@H]2CCN(C(=O)c3n[nH]c4ccc(C)cc34)C[C@H](NC(=O)c3ccc4ccc(C(F)(F)P(=O)(O)O)cc4c3)C(=O)N21` [Compound 229, (difluoro(7-(((5S,8S,10aR)-8-(((R)-1-(4-methoxyphenyl)-4-(methylamino)-4-oxobutan-2-yl)carbamoyl)-3-(5-methyl-1H-indazole-3-carbonyl)-6-oxodecahydropyrrolo[1,2-a][1,5]diazocin-5-yl)carbamoyl)naphthalen-2-yl)methyl)phosphonic acid], the IC50 in experiment [1] was at most 300 nM; in experiment [2] it was 1000 to 10000 nM.
As to `COc1ccc(CC2CCCN2C(=O)[C@@H]2CC[C@@H]3CCN(C(C)=O)C[C@H](NC(=O)c4cc5cc(C(F)(F)P(=O)(O)O)ccc5[nH]4)C(=O)N32)cc1` (stereo partly drawn) [Compound 131, ((2-(((5S,8S,10aR)-3-acetyl-8-(2-(4-methoxybenzyl)pyrrolidine-1-carbonyl)-6-oxodecahydropyrrolo[1,2-a][1,5]diazocin-5-yl)carbamoyl)-1H-indol-5-yl)difluoromethyl)phosphonic acid], the IC50 in experiment [1] was in the range of 300 to 3000 nM; in experiment [2], 1000 to 10000 nM.
For `NC(=O)[C@@H]1CN(C(=O)[C@@H]2CC[C@@H]3CCN(CC(F)F)C[C@H](NC(=O)c4cc5cc(C(F)(F)P(=O)(O)O)ccc5s4)C(=O)N32)C[C@H]1c1ccccc1` (single isomer, unassigned) [Compound 245, ((2-(((5S,8S,10aR)-8-((3S,4R or 3R,4S)-3-carbamoyl-4-phenylpyrrolidine-1-carbonyl)-3-(2,2-difluoroethyl)-6-oxodecahydropyrrolo[1,2-a][1,5]diazocin-5-yl)carbamoyl)benzo[b]thiophen-5-yl)difluoromethyl)phosphonic acid], the IC50 in experiment [1] fell in the range of 300 to 3000 nM; in experiment [2], 100 to 1000 nM.
Take `N#Cc1ccccc1-c1ccc(NC(=O)[C@@H]2CC[C@@H]3CCN(C(=O)Cc4ccccc4)C[C@H](NC(=O)c4cc5cc(C(F)(F)P(=O)(O)O)ccc5[nH]4)C(=O)N32)c(F)c1` [Compound 276, ((2-(((5S,8S,10aR)-8-((2′-cyano-3-fluoro-[1,1′-biphenyl]-4-yl)carbamoyl)-6-oxo-3-(2-phenylacetyl)decahydropyrrolo[1,2-a][1,5]diazocin-5-yl)carbamoyl)-1H-indol-5-yl)difluoromethyl)phosphonic acid]: the values for the IC50 in experiment [1] and in experiment [2] were 300 to 3000 nM and 1000 to 10000 nM, respectively.
For `CC(=O)N1CC[C@H]2CC[C@@H](C(=O)N3C[C@H](C#N)C[C@@H]3c3ccccc3)N2C(=O)[C@@H](NC(=O)c2cc3cc(C(F)(F)P(=O)(O)O)ccc3s2)C1` (relative stereo) [Compound 205, ((2-(((5S,8S,10aR)-3-acetyl-8-((rel-cis)-4-cyano-2-phenylpyrrolidine-1-carbonyl)-6-oxodecahydropyrrolo[1,2-a][1,5]diazocin-5-yl)carbamoyl)benzo[b]thiophen-5-yl)difluoromethyl)phosphonic acid], in that order: 300 to 3000 nM and 1000 to 10000 nM.
On the same counts, the results for `C[C@@H](C(=O)N1CC[C@H]2CC[C@@H](C(=O)N(C)c3ccccc3)N2C(=O)[C@@H](NC(=O)c2cc3cc(C(F)(F)P(=O)(O)O)ccc3[nH]2)C1)c1ccccc1` [Compound 217, (difluoro(2-(((5S,8S,10aR)-8-(methyl(phenyl)carbamoyl)-6-oxo-3-((R)-2-phenylpropanoyl)decahydropyrrolo[1,2 a][1,5]diazocin-5-yl)carbamoyl)-1H-indol-5-yl)methyl)phosphonic acid] are 300 to 3000 nM and above 10000 nM.
